Reference: patent US9662327B2 (AGIOS PHARMACEUTICALS, INC, priority 2011, dated 2017)
pIC50: −log10 of the molar value.

Target: IDH1 R132H (Homo sapiens (Human), UniProt O75874, R132H)
Experiment: Assays for IDH1 R132H Inhibitors (NADPH/aKG, resazurin detection)
Assay type: biochemical
Details: IDH1 R132H enzyme, Table 2; read-out: IDHR132H Activity
Procedure, shortened: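 Substrate mix held 8 uM NADPH plus 2 mM aKG; buffer was 20 mM Tris pH 7.5 with 150 mM NaCl, 10 mM MgCl2, 0.03% BSA. After 50 min room-temperature reaction, NADPH remaining was detected with 30 μM resazurin mix over 5 min.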

Sequence of IDH1 R132H (O75874 whole entry R132H): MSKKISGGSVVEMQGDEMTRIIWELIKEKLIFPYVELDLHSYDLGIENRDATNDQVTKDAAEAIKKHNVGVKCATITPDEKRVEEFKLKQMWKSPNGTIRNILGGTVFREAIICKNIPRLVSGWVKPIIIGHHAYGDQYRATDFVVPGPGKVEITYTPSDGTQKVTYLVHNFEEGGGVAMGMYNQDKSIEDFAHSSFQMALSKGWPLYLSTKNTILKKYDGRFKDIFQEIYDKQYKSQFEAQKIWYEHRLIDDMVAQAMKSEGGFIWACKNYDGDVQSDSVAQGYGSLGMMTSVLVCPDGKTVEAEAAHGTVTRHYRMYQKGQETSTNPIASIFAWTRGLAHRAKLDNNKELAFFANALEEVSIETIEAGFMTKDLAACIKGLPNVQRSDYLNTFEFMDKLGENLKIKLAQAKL

SMILES | pIC50
C[C@@H]1CN(c2nc(C3CCCCC3)c3c(c2C#N)CCOC3)CCN1C(=O)Cc1cccnc1 [Compound 260, (R)-8-cyclohexyl-6-(3-methyl-4-(2-(pyridin-3-yl)acetyl)piperazin-1-yl)-3,4-dihydro-1H-pyrano[3,4-c]pyridine-5-carbonitrile] | 5.00 to 6.00
C[C@@H]1CN(c2nc(C3CCCCC3)c3c(c2C#N)CCOC3)CCN1C(=O)c1cnn2cccnc12 [Compound 261, (R)-8-cyclohexyl-6-(3-methyl-4-(pyrazolo[1,5-a]pyrimidine-3-carbonyl)piperazin-1-yl)-3,4-dihydro-1H-pyrano[3,4-c]pyridine-5-carbonitrile] | 5.00 to 6.00
C[C@@H]1CN(c2nc(C3CCCCC3)c3c(c2C#N)CCOC3)CCN1C(=O)c1nccn1C [Compound 262, (R)-8-cyclohexyl-6-(3-methyl-4-(1-methyl-1H-imidazole-2-carbonyl)piperazin-1-yl)-3,4-dihydro-1H-pyrano[3,4-c]pyridine-5-carbonitrile] | 5.00 to 6.00
C[C@@H]1CN(c2nc(C3CCCCC3)c3c(c2C#N)CCOC3)CCN1C(=O)C1CCOC1 (stereo partly drawn) [Compound 263, 8-cyclohexyl-6-((3R)-3-methyl-4-(tetrahydrofuran-3-carbonyl)piperazin-1-yl)-3,4-dihydro-1H-pyrano[3,4-c]pyridine-5-carbonitrile] | 5.00 to 6.00
CSCCC(=O)N1CCN(c2nc(C3CCCCC3)c3c(c2C#N)CCOC3)C[C@H]1C [Compound 264, (R)-8-cyclohexyl-6-(3-methyl-4-(3-(methylthio)propanoyl)piperazin-1-yl)-3,4-dihydro-1H-pyrano[3,4-c]pyridine-5-carbonitrile] | 5.00 to 6.00
CC(C)[C@@H]1CN(c2nc(C3CC3)c3c(c2C#N)CC(C)(C)OC3)CCN1C(=O)Cc1cccnc1 [Compound 265] | > 6.30
CC(C)[C@@H]1CN(c2nc(C3CC3)c3c(c2C#N)CC(C)(C)OC3)CCN1C(=O)C1CCOC1 (stereo partly drawn) [Compound 266] | 6.00 to 6.30
CSCCC(=O)N1CCN(c2nc(C(C)C)c3c(c2C#N)CC(C)(C)OC3)C[C@H]1C [Compound 267, (R)-8-isopropyl-3,3-dimethyl-6-(3-methyl-4-(3-(methylthio)propanoyl)piperazin-1-yl)-3,4-dihydro-1H-pyrano[3,4-c]pyridine-5-carbonitrile] | 6.00 to 6.30
COCCC(=O)N1CCN(c2nc(C(C)C)c3c(c2C#N)CC(C)(C)OC3)C[C@H]1C [Compound 268, (R)-8-isopropyl-6-(4-(3-methoxypropanoyl)-3-methylpiperazin-1-yl)-3,3-dimethyl-3,4-dihydro-1H-pyrano[3,4-c]pyridine-5-carbonitrile] | 6.00 to 6.30
CSCCC(=O)N1CCN(c2nc(C3CC3)c3c(c2C#N)CC(C)(C)OC3)C[C@H]1C(C)C [Compound 269, (R)-8-cyclopropyl-6-(3-isopropyl-4-(3-(methylthio)propanoyl)piperazin-1-yl)-3,3-dimethyl-3,4-dihydro-1H-pyrano[3,4-c]pyridine-5-carbonitrile] | > 6.30
COCCC(=O)N1CCN(c2nc(C3CC3)c3c(c2C#N)CC(C)(C)OC3)C[C@H]1C(C)C [Compound 270, (R)-8-cyclopropyl-6-(3-isopropyl-4-(3-methoxypropanoyl)piperazin-1-yl)-3,3-dimethyl-3,4-dihydro-1H-pyrano[3,4-c]pyridine-5-carbonitrile] | > 6.30
CC(C)[C@@H]1CN(c2nc(C3CC3)c3c(c2C#N)CC(C)(C)OC3)CCN1C(=O)c1cccnc1 [Compound 271] | 5.00 to 6.00
CC1(C)Cc2c(C#N)c(N3CCN(C(=O)c4ccco4)[C@H](c4ccccc4)C3)nc(C3CC3)c2CO1 [Compound 272] | 6.00 to 6.30
CC1(C)Cc2c(C#N)c(N3CCN(C(=O)c4ccco4)[C@@H](c4ccccc4)C3)nc(C3CC3)c2CO1 [Compound 273] | 6.00 to 6.30
CC1(C)Cc2c(C#N)c(N3CCN(C(=O)c4ccoc4)[C@H](c4ccccc4)C3)nc(C3CC3)c2CO1 [Compound 274, (R)-8-cyclopropyl-6-(4-(furan-3-carbonyl)-3-phenylpiperazin-1-yl)-3,3-dimethyl-3,4-dihydro-1H-pyrano[3,4-c]pyridine-5-carbonitrile] | 5.00 to 6.00
